Data taken from ChEMBL document CHEMBL5465560, “Selectivity Literature for EUbOPEN Chemogenomic Library” (2024).

Assays:
[1] = target: Ribosomal protein S6 kinase alpha-2 (Homo sapiens) (UniProt Q15349); details: at 10 µM
[2] = target: Protein arginine N-methyltransferase 5 (Homo sapiens, UniProt O14744); test: Selectivity interaction (Methyltransferase screen (Scintillation proximity assays)) EUB0000255b PRMT5
[3] = target: Tyrosine-protein kinase FRK (Homo sapiens) (UniProt P42685); test: Selectivity interaction (Kinase panel (Z-LYTE Assay)) EUB0001632a FRK; details: at 10 µM
Chain of Tyrosine-protein kinase FRK (Homo sapiens) (P42685 whole entry): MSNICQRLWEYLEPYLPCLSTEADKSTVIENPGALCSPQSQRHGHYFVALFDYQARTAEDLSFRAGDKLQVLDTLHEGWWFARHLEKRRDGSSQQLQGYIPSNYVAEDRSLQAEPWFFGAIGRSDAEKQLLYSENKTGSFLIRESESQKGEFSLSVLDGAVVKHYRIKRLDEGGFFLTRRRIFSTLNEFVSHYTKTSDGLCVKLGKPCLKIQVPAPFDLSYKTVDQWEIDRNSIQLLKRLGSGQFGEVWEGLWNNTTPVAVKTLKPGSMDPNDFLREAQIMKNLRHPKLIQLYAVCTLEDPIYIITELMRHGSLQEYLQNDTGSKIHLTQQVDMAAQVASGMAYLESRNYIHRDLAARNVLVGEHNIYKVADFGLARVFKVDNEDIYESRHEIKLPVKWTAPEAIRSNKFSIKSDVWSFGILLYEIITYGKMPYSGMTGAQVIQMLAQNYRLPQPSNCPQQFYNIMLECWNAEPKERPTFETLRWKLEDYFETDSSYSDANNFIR

[4] = target: T1, Muscle, skeletal receptor tyrosine-protein kinase (Homo sapiens) (UniProt O15146); test: Selectivity interaction (Kinase panel (Invitrogen)) EUB0000639a MUSK; details: at 200 nM
T1 sequence (whole entry): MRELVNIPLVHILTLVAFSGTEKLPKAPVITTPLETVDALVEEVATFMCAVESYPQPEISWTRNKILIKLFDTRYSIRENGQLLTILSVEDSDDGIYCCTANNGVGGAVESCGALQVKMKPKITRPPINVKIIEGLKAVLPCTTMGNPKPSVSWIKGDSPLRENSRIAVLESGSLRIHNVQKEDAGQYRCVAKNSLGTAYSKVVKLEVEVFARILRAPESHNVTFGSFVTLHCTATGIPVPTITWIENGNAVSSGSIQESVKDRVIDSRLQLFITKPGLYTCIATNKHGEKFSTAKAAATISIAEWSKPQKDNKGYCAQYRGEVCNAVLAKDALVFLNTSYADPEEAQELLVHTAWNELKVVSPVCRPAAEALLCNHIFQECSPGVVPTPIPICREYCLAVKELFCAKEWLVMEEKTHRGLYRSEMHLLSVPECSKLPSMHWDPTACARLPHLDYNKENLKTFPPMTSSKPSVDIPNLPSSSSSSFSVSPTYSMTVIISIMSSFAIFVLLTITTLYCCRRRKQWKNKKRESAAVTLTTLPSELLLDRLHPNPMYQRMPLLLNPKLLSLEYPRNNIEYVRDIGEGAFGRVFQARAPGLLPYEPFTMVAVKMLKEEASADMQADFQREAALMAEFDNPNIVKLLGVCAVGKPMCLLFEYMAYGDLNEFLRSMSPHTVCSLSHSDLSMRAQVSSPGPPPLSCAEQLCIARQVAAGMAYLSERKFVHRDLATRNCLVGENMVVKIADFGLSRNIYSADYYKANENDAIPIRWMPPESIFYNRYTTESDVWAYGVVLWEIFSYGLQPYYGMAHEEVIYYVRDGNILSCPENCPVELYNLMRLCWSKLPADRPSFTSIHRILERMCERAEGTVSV

[5] = target: Calcium/calmodulin-dependent protein kinase type 1 (Homo sapiens) (UniProt Q14012); test: Selectivity interaction (ActivX KiNativ screen (kinase selectivity in THP-1 cell lysates)) EUB0000639a CAMK1; type: subcellular; details: lysate
Chain of Calcium/calmodulin-dependent protein kinase type 1 (Homo sapiens) (Q14012 whole entry, looked up): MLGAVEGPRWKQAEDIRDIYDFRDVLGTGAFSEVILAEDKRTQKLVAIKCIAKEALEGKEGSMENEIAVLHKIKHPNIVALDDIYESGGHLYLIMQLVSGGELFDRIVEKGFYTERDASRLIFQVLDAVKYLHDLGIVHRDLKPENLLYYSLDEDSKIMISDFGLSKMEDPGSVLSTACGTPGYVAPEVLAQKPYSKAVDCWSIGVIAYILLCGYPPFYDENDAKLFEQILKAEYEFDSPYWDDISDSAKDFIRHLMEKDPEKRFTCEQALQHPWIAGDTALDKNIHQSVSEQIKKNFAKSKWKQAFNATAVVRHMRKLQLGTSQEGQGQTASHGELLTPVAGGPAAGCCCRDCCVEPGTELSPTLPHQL

[6] = target: Mitogen-activated protein kinase 14 (Homo sapiens, UniProt Q16539); test: Selectivity interaction (ActivX KiNativ screen (kinase selectivity in THP-1 cell lysates)) EUB0000639a MAPK14; type: subcellular; details: lysate, at 0.01 µM
Chain of Mitogen-activated protein kinase 14 (Q16539 whole entry): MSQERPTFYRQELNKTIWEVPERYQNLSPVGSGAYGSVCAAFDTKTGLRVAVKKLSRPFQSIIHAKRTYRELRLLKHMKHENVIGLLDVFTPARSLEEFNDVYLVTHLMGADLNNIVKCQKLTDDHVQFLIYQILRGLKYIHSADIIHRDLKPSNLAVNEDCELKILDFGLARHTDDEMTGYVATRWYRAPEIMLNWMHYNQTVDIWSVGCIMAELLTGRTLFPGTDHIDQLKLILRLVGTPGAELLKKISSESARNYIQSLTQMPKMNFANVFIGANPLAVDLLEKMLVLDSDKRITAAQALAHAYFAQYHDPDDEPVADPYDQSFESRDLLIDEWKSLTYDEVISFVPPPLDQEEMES

[7] = target: Serine/threonine-protein kinase PLK1 (Homo sapiens, UniProt P53350); test: Selectivity interaction (ActivX KiNativ screen (kinase selectivity in THP-1 cell lysates)) EUB0000639a PLK1; type: subcellular; details: lysate, at 0.01 µM
Chain of Serine/threonine-protein kinase PLK1 (P53350 whole entry): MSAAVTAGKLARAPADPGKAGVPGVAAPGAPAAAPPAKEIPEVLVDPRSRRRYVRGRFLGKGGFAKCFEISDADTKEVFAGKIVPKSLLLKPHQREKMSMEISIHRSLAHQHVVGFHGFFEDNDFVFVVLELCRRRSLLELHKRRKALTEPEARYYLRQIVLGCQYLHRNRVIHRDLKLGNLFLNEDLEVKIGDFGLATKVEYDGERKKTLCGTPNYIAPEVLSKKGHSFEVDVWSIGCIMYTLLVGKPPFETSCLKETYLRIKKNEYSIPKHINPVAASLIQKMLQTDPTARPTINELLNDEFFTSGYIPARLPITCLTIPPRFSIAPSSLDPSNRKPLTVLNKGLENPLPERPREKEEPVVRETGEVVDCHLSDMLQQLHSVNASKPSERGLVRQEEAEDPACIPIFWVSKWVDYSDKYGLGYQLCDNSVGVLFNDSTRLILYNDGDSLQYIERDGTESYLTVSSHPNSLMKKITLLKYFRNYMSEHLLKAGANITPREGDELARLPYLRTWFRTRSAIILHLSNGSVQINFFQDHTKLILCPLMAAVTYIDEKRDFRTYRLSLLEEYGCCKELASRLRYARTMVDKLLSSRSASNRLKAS

[8] = target: RAC-alpha serine/threonine-protein kinase (Homo sapiens, UniProt P31749); test: Selectivity interaction (Kinase panel (literature)) EUB0001199aCl AKT1; details: at 1 µM
Chain of RAC-alpha serine/threonine-protein kinase (P31749 whole entry): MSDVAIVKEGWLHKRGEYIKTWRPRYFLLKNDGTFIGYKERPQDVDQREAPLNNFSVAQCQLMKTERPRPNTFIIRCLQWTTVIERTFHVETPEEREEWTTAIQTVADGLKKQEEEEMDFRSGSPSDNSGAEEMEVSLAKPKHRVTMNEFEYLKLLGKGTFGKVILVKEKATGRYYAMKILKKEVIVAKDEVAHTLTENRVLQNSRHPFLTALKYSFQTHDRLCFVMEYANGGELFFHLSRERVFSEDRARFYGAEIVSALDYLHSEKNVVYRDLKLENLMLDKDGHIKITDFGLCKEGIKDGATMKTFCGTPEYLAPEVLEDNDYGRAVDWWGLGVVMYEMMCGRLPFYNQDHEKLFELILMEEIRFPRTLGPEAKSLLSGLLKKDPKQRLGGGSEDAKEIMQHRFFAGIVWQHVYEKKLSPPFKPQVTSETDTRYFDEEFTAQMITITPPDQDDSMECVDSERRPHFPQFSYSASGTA

[9] = target: T2, Serine/threonine-protein kinase TAO2 (Homo sapiens) (UniProt Q9UL54); test: Selectivity interaction (ActivX KiNativ screen (ex vivo kinase selectivity in human PBMCs)) EUB0001619a TAOK2; type: cell-based; details: PBMC, at 1 µM
T2 sequence (whole entry): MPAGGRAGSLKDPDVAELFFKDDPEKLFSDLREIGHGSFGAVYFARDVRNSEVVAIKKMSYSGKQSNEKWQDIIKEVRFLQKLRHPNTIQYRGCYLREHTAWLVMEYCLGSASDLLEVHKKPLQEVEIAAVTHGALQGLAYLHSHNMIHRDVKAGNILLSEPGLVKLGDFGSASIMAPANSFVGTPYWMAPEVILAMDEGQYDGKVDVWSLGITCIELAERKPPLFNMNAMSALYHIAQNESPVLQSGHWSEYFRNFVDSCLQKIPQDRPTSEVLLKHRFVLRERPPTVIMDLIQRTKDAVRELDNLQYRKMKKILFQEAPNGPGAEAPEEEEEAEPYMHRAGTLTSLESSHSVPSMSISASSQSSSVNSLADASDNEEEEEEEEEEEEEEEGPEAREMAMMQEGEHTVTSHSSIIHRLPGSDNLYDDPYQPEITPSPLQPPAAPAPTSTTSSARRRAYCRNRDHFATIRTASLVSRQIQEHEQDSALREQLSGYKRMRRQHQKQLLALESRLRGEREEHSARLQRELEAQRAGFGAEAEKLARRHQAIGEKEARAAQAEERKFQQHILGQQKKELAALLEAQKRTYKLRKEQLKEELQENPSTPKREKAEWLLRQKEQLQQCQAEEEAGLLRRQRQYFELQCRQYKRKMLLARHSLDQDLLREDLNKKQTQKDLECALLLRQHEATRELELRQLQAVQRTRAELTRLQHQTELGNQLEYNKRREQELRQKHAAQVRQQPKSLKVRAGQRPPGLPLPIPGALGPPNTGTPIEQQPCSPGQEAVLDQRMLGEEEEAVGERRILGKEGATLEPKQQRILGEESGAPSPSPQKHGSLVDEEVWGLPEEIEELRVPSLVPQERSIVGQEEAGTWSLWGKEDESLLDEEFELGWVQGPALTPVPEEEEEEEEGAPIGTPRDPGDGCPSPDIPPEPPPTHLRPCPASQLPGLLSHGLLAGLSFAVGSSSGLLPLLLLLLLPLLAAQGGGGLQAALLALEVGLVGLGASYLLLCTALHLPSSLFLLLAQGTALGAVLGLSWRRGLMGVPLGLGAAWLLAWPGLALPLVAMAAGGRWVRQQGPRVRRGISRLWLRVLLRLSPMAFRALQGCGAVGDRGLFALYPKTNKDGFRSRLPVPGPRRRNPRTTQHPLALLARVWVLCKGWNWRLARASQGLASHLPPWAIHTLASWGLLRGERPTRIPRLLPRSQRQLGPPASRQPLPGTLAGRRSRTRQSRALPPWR

Chain of Protein arginine N-methyltransferase 5 (O14744 whole entry): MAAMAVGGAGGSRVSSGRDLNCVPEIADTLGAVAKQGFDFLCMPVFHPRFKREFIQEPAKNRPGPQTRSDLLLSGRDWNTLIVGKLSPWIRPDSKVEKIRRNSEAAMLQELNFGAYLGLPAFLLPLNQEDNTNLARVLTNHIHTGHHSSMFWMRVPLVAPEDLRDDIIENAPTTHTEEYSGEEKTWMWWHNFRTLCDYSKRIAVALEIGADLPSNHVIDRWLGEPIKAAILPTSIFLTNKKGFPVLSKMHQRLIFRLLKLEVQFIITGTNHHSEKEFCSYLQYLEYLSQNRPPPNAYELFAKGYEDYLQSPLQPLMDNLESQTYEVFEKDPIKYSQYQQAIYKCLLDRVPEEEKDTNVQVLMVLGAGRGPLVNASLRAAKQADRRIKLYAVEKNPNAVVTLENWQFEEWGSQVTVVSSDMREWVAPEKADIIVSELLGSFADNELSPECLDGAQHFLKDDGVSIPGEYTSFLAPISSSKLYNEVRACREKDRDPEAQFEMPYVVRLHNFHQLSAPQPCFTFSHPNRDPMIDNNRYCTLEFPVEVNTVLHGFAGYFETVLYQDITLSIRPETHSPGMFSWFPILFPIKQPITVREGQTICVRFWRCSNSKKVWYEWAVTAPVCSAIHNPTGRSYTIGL
Chain of Ribosomal protein S6 kinase alpha-2 (Homo sapiens) (Q15349 whole entry): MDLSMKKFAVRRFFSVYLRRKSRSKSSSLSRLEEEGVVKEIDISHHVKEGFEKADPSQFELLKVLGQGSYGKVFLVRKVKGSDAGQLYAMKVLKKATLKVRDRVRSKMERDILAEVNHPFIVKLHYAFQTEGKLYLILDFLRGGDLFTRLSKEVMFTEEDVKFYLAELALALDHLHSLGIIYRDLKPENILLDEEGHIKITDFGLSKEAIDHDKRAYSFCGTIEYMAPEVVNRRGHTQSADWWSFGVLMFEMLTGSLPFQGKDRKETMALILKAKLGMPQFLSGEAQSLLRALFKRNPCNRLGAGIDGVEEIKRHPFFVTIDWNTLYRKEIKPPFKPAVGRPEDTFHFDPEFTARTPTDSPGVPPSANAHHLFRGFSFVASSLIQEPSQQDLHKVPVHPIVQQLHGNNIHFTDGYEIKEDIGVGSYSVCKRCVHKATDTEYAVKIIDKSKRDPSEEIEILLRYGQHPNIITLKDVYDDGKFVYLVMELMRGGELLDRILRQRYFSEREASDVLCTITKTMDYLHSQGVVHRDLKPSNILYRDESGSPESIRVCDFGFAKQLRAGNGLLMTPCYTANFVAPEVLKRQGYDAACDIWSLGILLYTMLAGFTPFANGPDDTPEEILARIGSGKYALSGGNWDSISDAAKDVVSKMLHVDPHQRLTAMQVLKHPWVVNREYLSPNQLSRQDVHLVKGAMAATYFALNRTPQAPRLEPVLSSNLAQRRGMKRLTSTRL

Compound `CCN(CC)CCCCNc1ncc2cc(-c3cc(OC)cc(OC)c3)c(NC(=O)NC(C)(C)C)nc2n1` has a % of control [1] of 100%.

With `COCCN1CCC(c2cc(CN(C)C(=O)c3cccc(Oc4ccccc4)c3)ccn2)CC1` the % activity ([2]; at 1 µM) was > 95% and the % activity ([2]; at 10 µM) was > 90%.

`Cn1cc(-n2cnc3c(NCc4nc5cc(Cl)c(Cl)cc5[nH]4)nc(N4CCOCC4)nc32)cn1` showed a % of control [3] of 5.87%.

In the case of `CC[C@@H]1[C@H](F)C(=O)N[C@@H]1COc1nccc2cc(C(N)=O)c(OC)cc12` [ZIMLOVISERTIB], the % of inhibition [4] is reported as -2.77%, the % of inhibition ([5]; at 0.01 µM) is reported as -2.6% and the % of inhibition ([5]; at 0.04 µM) is reported as 9.8%. It also gave a % of inhibition ([5]; at 0.2 µM) of 1.9%, a % of inhibition ([5]; at 1 µM) of -7.1% and a % of inhibition ([5]; at 5 µM) of -4.3%. The % of inhibition [6] was -4.1% and the % of inhibition [7] was -0.3%.

`CN1Cc2nccc(-c3cn(C)nc3-c3ccc(F)cc3)c2C1=O` gave a % of inhibition [8] of -3%.

`N#Cc1cccc(-c2c[nH]c3ncnc(N4CCOCC4)c23)c1` was tested, and the % of inhibition [9] was -3%.
